Settings: Liquid, Ebulliometric method (Recirculating still)

CC(C)CCO [3-methylbutan-1-ol]
Settings	vapor or sublimation pressure [kPa]
366.27 K	22.66
369.95 K	26.66
373.24 K	30.66
376.14 K	34.66
379.65 K	40
382.78 K	45.33
385.62 K	50.66
388.23 K	55.99
390.64 K	61.33
392.88 K	66.66
395.48 K	73.33
397.9 K	79.99
400.18 K	86.66
402.32 K	93.33
403.77 K	97.99

CCCC(C)O (stereo not given) [pentan-2-ol]
Settings	vapor or sublimation pressure [kPa]
350.91 K	18.66
353.74 K	21.33
356.29 K	24
358.61 K	26.66
361.26 K	30
363.69 K	33.33
365.92 K	36.66
368 K	40
370.31 K	44
372.45 K	48
374.46 K	52
376.35 K	55.99
378.13 K	59.99
380.36 K	65.33
382.45 K	70.66
384.42 K	75.99
386.27 K	81.33
388.47 K	87.99
390.53 K	94.66
391.32 K	97.33

CC(C)C(C)O (stereo not given) [3-methyl-2-butanol]
Settings	vapor or sublimation pressure [kPa]
352.84 K	28.66
355.33 K	32
357.63 K	35.33
359.76 K	38.66
361.74 K	42
363.6 K	45.33
365.69 K	49.33
367.65 K	53.33
369.5 K	57.33
371.24 K	61.33
372.9 K	65.33
374.99 K	70.66
376.95 K	75.99
378.81 K	81.33
380.58 K	86.66
382.26 K	91.99
383.87 K	97.33
384.45 K	99.33

CCC(C)(C)O [2-methylbutan-2-ol]
Settings	vapor or sublimation pressure [kPa]
335.75 K	19.33
339.03 K	22.66
341.93 K	26
344.54 K	29.33
346.91 K	32.66
349.1 K	36
351.52 K	40
353.75 K	44
355.83 K	48
357.78 K	52
359.9 K	56.66
361.88 K	61.33
364.01 K	66.66
366.01 K	71.99
367.9 K	77.33
369.69 K	82.66
371.8 K	89.33
373.79 K	95.99
374.56 K	98.66

CCC(C)CO (stereo not given) [2-methyl-1-butanol]
Settings	vapor or sublimation pressure [kPa]
345.51 K	9.333
350.44 K	12
354.51 K	14.66
358.02 K	17.33
361.8 K	20.66
365.12 K	24
368.62 K	28
371.74 K	32
374.56 K	36
377.13 K	40
379.5 K	44
382.05 K	48.66
384.41 K	53.33
386.92 K	58.66
389.23 K	63.99
391.4 K	69.33
393.43 K	74.66
395.35 K	79.99
397.17 K	85.33
398.9 K	90.66
400.96 K	97.33

CCC(O)CC [3-pentanol]
Settings	vapor or sublimation pressure [kPa]
342.02 K	14.66
345.41 K	17.33
348.4 K	20
351.07 K	22.66
354.07 K	26
356.77 K	29.33
359.24 K	32.66
360.62 K	34.66
362.79 K	38
364.81 K	41.33
367.06 K	45.33
369.16 K	49.33
371.13 K	53.33
372.99 K	57.33
374.75 K	61.33
376.95 K	66.66
379.02 K	71.99
380.97 K	77.33
382.82 K	82.66
385 K	89.33
387.06 K	95.99
387.65 K	97.99

From the NIST ThermoML archive (doi:10.1016/j.fluid.2010.06.020)
